Results from patent US20200206233A1 (INTEGRAL BIOSCIENCES PRIVATE LIMITED, priority 2018, published 2020).
pIC50: −log10 of the molar value.

How the values were obtained:
Format in all cases: biochemical
IDH2 mutant (R140Q) = biological target: T1, IDH2 mutant (R140Q) (Homo sapiens, UniProt P48735, R140Q); experiment: Mutant IDH2-R140Q Fluorescence Assay (Resazurin based); conditions: 5 nM IDH2 R140Q, 4 hr pre-incubation, 1 mM α-ketoglutarate, 5 μM NADPH, 2 h
T1 construct: purchased BPS Bioscience 71100-2
T1 sequence (P48735 40-452 R140Q): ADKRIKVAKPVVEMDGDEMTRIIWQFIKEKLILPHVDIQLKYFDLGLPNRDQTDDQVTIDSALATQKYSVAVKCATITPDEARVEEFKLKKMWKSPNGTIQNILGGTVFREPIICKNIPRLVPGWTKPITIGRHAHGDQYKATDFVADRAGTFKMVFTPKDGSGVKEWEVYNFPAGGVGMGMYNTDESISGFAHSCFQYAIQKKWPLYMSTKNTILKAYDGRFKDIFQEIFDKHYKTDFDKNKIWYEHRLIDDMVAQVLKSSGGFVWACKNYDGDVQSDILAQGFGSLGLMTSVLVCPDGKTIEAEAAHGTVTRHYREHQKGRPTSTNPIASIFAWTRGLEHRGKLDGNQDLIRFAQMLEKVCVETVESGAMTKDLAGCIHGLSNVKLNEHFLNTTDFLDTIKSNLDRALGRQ
Experimental: IC50 values of compounds against IDH2 mutant (R140Q) were determined by Resazurin based Fluorescence assay. Assay was performed in Buffer (25 mM Tris HCl, 150 mM NaCl, 10 mM MgCl2, 0.03% BSA, 2 mM 1-mercaptoethanol) where total reaction volume was 12.5 μL in low-volume 384-well plates (Cat #4511, Corning). Serially diluted compounds (3-fold) were pre-incubated with IDH2 R140Q mutant enzyme (5 nM; Cat #71100-2, BPS Bioscience) for 4 hr at RT (25° C.) followed by addition of cocktail of α-ketoglutarate (1 mM; Cat #75892-25G, Sigma), and NADPH (5 μM; Cat # N1630-100MG, Sigma) with buffer in dark at room temperature for 2 h. After 2 h incubation, 6.25 μL detection solution containing Resazurin (30 μM; (Cat #62758-13-8, Sigma) and Diaphorase (40 ug/ml; Cat # D2197-300UN, Sigma) in buffer was added and incubated for 15 min. Readings were taken in a Synergy Neo Plate reader (BioTek, Winooski) at single excitation of 540 nm and emission at 590 nm respectively.
The % activity of test samples was calculated as (Sample−Min)×100/(Max−Min). [Max: DMSO control, complete reaction with enzyme with DMSO and Min: No enzyme with DMSO]. Percent inhibition (100−% activity) was fitted to the “four-parameter logistic model” in XLfit for determination of IC50 values.

IDH1-WT = biological target: T2, IDH1-WT (Homo sapiens, UniProt O75874); experiment: IDH1-WT Fluorescence Assay (Resazurin based); conditions: 1 nM IDH1-WT, 200 μM isocitrate, 15 μM NADP+, 30 min at room temperature
T2 construct: purchased BPS Bioscience 71075-2
Experimental: IC50 values of compounds against IDH1-WT was determined by Resazurin based Fluorescence assay. Assays were performed in Buffer (50 mM Tris HCl, 10 mM MgCl2, 0.03% BSA, 2 mM ß-mercaptoethanol) where total reaction volume was 25 μL in low-volume 96-well plates. Serially diluted compounds (3-fold) in DMSO (0.5% in final reaction) were incubated with cocktail of isocitrate (200 μM; Cat # I1252-1G, Sigma), NADP^+ (15 μM; Cat # N0505-500MG, Sigma) and buffer for 5 min, following addition of IDH1-WT enzyme (1 nM; Cat #71075-2, BPS Bioscience) and incubated in dark at room temperature for 30 min. After that, 12.5 μL detection solution containing Resazurin (60 μM; Cat #62758-13-8, Sigma) and Diaphorase (40 μg/ml; Cat # D2197-300UN, Sigma) in buffer was added and incubated for 15 min. Readings were taken using a Synergy Neo Plate reader (BioTek, Winooski) at single excitation of 540 nm and emission at 590 nm respectively.
The % (percent) activity of test samples was calculated as (Sample−Min)×100/(Max−Min). [Max: DMSO control, complete reaction with enzyme with DMSO and Min: No enzyme with DMSO]. Percent inhibition (100−% activity) was fitted to the “four-parameter logistic model” in XLfit for determination of IC50 values.

IDH1 mutant (R132H) = biological target: T3, IDH1 mutant (R132H) (Homo sapiens, UniProt O75874, R132H); experiment: Mutant IDH1-R132H Fluorescence Assay (Resazurin based); conditions: 10 nM IDH1 R132H, 4 mM α-ketoglutarate, NADPH, 1.5 h at room temperature
T3 construct: purchased BPS Bioscience 71099-2
In short: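 Recombinant IDH1 R132H (10 nM) was run with α-ketoglutarate (4 mM) and NADPH ([…]) for 1.5 h at room temperature in Tris pH buffer with MgCl2, BSA and mercaptoethanol. Remaining NADPH was detected via diaphorase/resazurin fluorescence (ex 540/em 590 nm). IC50 came from a 4-parameter logistic fit.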

T2 sequence (O75874 whole entry): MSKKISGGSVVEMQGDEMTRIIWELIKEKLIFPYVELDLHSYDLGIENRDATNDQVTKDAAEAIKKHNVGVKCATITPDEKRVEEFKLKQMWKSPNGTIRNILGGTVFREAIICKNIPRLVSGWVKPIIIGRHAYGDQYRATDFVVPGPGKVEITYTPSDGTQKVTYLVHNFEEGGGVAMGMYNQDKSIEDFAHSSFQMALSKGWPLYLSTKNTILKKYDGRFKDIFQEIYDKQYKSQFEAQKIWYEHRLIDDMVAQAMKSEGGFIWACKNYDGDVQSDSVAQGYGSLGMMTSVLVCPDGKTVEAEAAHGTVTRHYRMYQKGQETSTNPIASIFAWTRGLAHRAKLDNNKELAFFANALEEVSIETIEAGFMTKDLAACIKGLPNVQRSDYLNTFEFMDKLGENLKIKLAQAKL
T3 sequence (O75874 whole entry R132H): as the sequence (O75874 whole entry) above, with R132H counted along it

Row | pIC50 (IDH2 mutant (R140Q)) | pIC50 (IDH1-WT) | pIC50 (IDH1 mutant (R132H)) | SMILES
1 | < 4.30 | < 4.52 | < 4.52 | CC[C@@H](Nc1ncnc(N2C(=O)OC[C@@H]2C(C)C)n1)c1ccc(Oc2ccccc2)cc1 [Compound 1.34, (S)-4-isopropyl-3-(4-((R)-1-(4-phenoxyphenyl)propylamino)-1,3,5-triazin-2-yl)oxazolidin-2-one]
2 | < 4.30 | < 4.30 | 6.15 | CC[C@H]1COC(=O)N1c1nc(N[C@@H](C)c2cn(-c3ccc(C(F)(F)F)cc3)cn2)nc(OC)n1 [Compound 1.41, (S)-4-ethyl-3-(4-methoxy-6-((S)-1-(1-(4-(trifluoromethyl)phenyl)-1H-imidazol-4-yl)ethylamino)-1,3,5-triazin-2-yl)oxazolidin-2-one]
3 | < 4.30 | < 4.30 | 6.04 | CC[C@H]1COC(=O)N1c1nc(C)nc(N[C@@H](C)c2ccc3ccn(-c4ccccc4)c3c2)n1 [Compound 1.85, (S)-4-ethyl-3-(4-methyl-6-((S)-1-(1-phenyl-1H-indol-6-yl)ethylamino)-1,3,5-triazin-2-yl)oxazolidin-2-one]
4 | < 4.30 | < 4.30 | 6.18 | CC[C@H]1COC(=O)N1c1nc(C)nc(N[C@H](C)c2cc3cc(Cl)c(OC(C)C)cc3[nH]c2=O)n1 [Compound 1.105, (S)-3-(4-((R)-1-(6-chloro-7-isopropoxy-2-oxo-1,2-dihydroquinolin-3-yl)ethylamino)-6-methyl-1,3,5-triazin-2-yl)-4-ethyloxazolidin-2-one]
5 | < 4.30 | < 4.30 | 5.78 | CC(C)[C@H]1COC(=O)N1c1ncnc(N[C@@H](C)c2ccc(Oc3ccccc3)cn2)n1 [Compound 1.19, (S)-4-isopropyl-3-(4-((S)-1-(5-phenoxypyridin-2-yl)ethylamino)-1,3,5-triazin-2-yl)oxazolidin-2-one]
6 | < 4.30 | < 4.30 | 6.21 | CC[C@H]1COC(=O)N1c1nc(C)nc(N[C@@H](C)c2ccc(Oc3ccccc3)c(F)c2)n1 [Compound 1.84, (S)-4-ethyl-3-(4-((S)-1-(3-fluoro-4-phenoxyphenyl)ethylamino)-6-methyl-1,3,5-triazin-2-yl)oxazolidin-2-one]
7 | < 4.30 | < 4.30 | 6.53 | CC[C@H]1COC(=O)N1c1nc(C)nc(N[C@@H](C)c2cn(-c3ccc(C(F)(F)F)cc3)cn2)n1 [Compound 1.40, (S)-4-ethyl-3-(4-methyl-6-((S)-1-(1-(4-(trifluoromethyl)phenyl)-1H-imidazol-4-yl)ethylamino)-1,3,5-triazin-2-yl)oxazolidin-2-one]
8 | < 4.30 | < 4.30 | 4.71 | CC(C)[C@H]1COC(=O)N1c1ncnc(N[C@@H](C)c2ccccc2)n1 [Compound 1.37, (S)-4-isopropyl-3-(4-((S)-1-phenylethylamino)-1,3,5-triazin-2-yl)oxazolidin-2-one]
9 | < 4.30 | < 4.52 | 5.48 | CC(C)[C@H]1COC(=O)N1c1ncnc(N[C@@H](C)c2ccc(-c3ccc(C(F)(F)F)cc3)cn2)n1 [Compound 1.4, (S)-4-isopropyl-3-(4-((S)-1-(5-(4-(trifluoromethyl)phenyl)pyridin-2-yl)ethylamino)-1,3,5-triazin-2-yl)oxazolidin-2-one]
10 | < 4.30 | < 4.30 | 5.85 | Cc1cc([C@H](C)Nc2ncnc(N3C(=O)OC[C@@H]3C(C)C)n2)ncc1-c1ccnc(C(F)(F)F)c1 [Compound 1.21, (S)-4-isopropyl-3-(4-((S)-1-(4-methyl-2′-(trifluoromethyl)-3,4′-bipyridin-6-yl)ethylamino)-1,3,5-triazin-2-yl)oxazolidin-2-one]
11 | < 4.30 | < 4.52 | 6.11 | CC(C)[C@H]1COC(=O)N1c1ncnc(N[C@@H](C)c2cn(-c3ccc(Cl)cc3)cn2)n1 [Compound 1.13, (S)-3-(4-((S)-1-(1-(4-chlorophenyl)-1H-imidazol-4-yl)ethylamino)-1,3,5-triazin-2-yl)-4-isopropyloxazolidin-2-one]

The remaining lines, values behind:

Row | SMILES | pIC50 (IDH2 mutant (R140Q)) | pIC50 (IDH1-WT) | pIC50 (IDH1 mutant (R132H))
12 | CC(C)[C@H]1COC(=O)N1c1ncnc(NCc2ccc(Oc3ccccc3)cc2)n1 [Compound 1.28, (S)-4-isopropyl-3-(4-(4-phenoxybenzylamino)-1,3,5-triazin-2-yl)oxazolidin-2-one] | < 4.30 | < 4.30 | 5.34
13 | CC[C@H]1COC(=O)N1c1nc(C)nc(N[C@@H](C)c2ccc(Oc3ccc4ccccc4c3)cc2)n1 [Compound 1.94, (S)-4-ethyl-3-(4-methyl-6-((S)-1-(4-(naphthalen-2-yloxy)phenyl)ethylamino)-1,3,5-triazin-2-yl)oxazolidin-2-one] | < 4.30 | < 4.30 | 6.28
14 | COc1nc(N[C@@H](C)c2ccc(Oc3ccccc3)cc2)nc(N2C(=O)OC[C@@H]2C(C)C)n1 [Compound 1.31, (S)-4-isopropyl-3-(4-methoxy-6-((S)-1-(4-phenoxyphenyl)ethylamino)-1,3,5-triazin-2-yl)oxazolidin-2-one] | < 4.30 | < 4.52 | 6.31
15 | Cc1cc(-c2cnc([C@H](C)Nc3ncnc(N4C(=O)OC[C@@H]4C(C)C)n3)nc2)ccc1F [Compound 1.1, (S)-3-(4-((S)-1-(5-(4-fluoro-3-methylphenyl)pyrimidin-2-yl)ethylamino)-1,3,5-triazin-2-yl)-4-isopropyloxazolidin-2-one] | < 4.30 | < 4.30 | 5.56
16 | CC[C@H](Nc1ncnc(N2C(=O)OC[C@@H]2C(C)C)n1)c1ccc(Oc2ccccc2)cc1 [Compound 1.35, (S)-4-isopropyl-3-(4-((S)-1-(4-phenoxyphenyl)propylamino)-1,3,5-triazin-2-yl)oxazolidin-2-one] | < 4.30 | < 4.52 | 6.06
17 | CC(C)[C@H]1COC(=O)N1c1ncnc(N[C@@H](C)c2ccc(-c3ccc(Cl)cc3)cn2)n1 [Compound 1.10, (S)-3-(4-((S)-1-(5-(4-chlorophenyl)pyridin-2-yl)ethylamino)-1,3,5-triazin-2-yl)-4-isopropyloxazolidin-2-one] | < 4.30 | < 4.52 | 5.56
18 | CC[C@H]1COC(=O)N1c1nc(C)nc(N[C@@H](C)c2ccc(Oc3ccccc3)c(-c3ccccc3)c2)n1 [Compound 1.82, (S)-4-ethyl-3-(4-methyl-6-((S)-1-(6-phenoxybiphenyl-3-yl)ethylamino)-1,3,5-triazin-2-yl)oxazolidin-2-one] | < 4.30 | < 4.30 | 6.38
19 | CC[C@H]1COC(=O)N1c1nc(C)nc(N[C@@H](C)c2ccc(Oc3ccc(F)cc3)cc2)n1 [Compound 1.58, (S)-4-ethyl-3-(4-((S)-1-(4-(4-fluorophenoxy)phenyl)ethylamino)-6-methyl-1,3,5-triazin-2-yl)oxazolidin-2-one] | < 4.30 | < 4.30 | 6.51
